Measurements as given in ChEMBL document CHEMBL1127960, “Latent leishmanicidal activity of quinazolinones and 1,2,4-triazoloquinazolinones” (1994).

Tested on: Leishmania donovani
Experiment: In vitro leishmanicidal activity against promastigotes of Leishmania donovani at 100 ug/ml concentration
Type: functional

Compared with `CCn1c(=O)c2cc(OC)ccc2n2c(CCl)nnc12`, `CCn1c(=O)c2cc(OC)ccc2n2c(S)nnc12` is higher in “Leishmanicidal activity (% promastigotes killed)” value: 67% for the first, 80% for the second.

Going from `Cn1c(=O)c2ccc(Cl)cc2n2c(CSC3=NCCN3)nnc12` to `CCn1c(=O)c2ccc(Cl)cc2n2c(CSC3=NCCN3)nnc12`, the “Leishmanicidal activity (% promastigotes killed)” value falls from 35% to 24%.

Compared with `Cn1c(=O)c2ccc(Cl)cc2n2c(CCl)nnc12`, `CCn1c(=O)c2ccc(Cl)cc2n2c(CCl)nnc12` is lower in “Leishmanicidal activity (% promastigotes killed)” value: 95% for the first, 70% for the second.

Compared with `Cn1c(=O)c2ccc(Cl)cc2n2c(S)nnc12`, `CCn1c(=O)c2ccc(Cl)cc2n2c(S)nnc12` is lower in “Leishmanicidal activity (% promastigotes killed)” value: 55% for the first, 30% for the second.

First: CCn1c(=O)c2cc(OC)ccc2n2cnnc12
Second: CCn1c(=O)c2cc(OC)ccc2n2c(C)nnc12
The “Leishmanicidal activity (% promastigotes killed)” value of the first is lower: 39% for the first, 42% for the second.

Compared with `CCn1c(=O)c2ccc(Cl)cc2n2c(C)nnc12`, `CCn1c(=O)c2ccc(Cl)cc2n2cnnc12` is lower in “Leishmanicidal activity (% promastigotes killed)” value: 49% for the first, 19% for the second.

`CCOC(=O)c1c(SC)nn(-c2nc3cc(Cl)ccc3c(=O)n2C)c1N` and `CCOC(=O)c1c(SC)nn(-c2nc3cc(Cl)ccc3c(=O)n2CC)c1N` are the same in “Leishmanicidal activity (% promastigotes killed)” value: 0% for the first, 0% for the second.

First: Cn1c(=O)c2ccc(Cl)cc2n2cnnc12
Second: CSc1nc2cc(Cl)ccc2c(=O)n1C
The “Leishmanicidal activity (% promastigotes killed)” value of the first is higher: 81% for the first, 0% for the second.

First: CCn1c(=S)[nH]c2ccc(OC)cc2c1=O
Second: CCn1c(NN)nc2ccc(OC)cc2c1=O
The “Leishmanicidal activity (% promastigotes killed)” value of the first is higher: 12% for the first, 0% for the second.

First: CCn1c(SCc2nnc3n(CC)c(=O)c4ccc(Cl)cc4n23)nc2ccc(OC)cc2c1=O
Second: CCn1c(SCc2nnc3n(C)c(=O)c4ccc(Cl)cc4n23)nc2ccc(OC)cc2c1=O
The “Leishmanicidal activity (% promastigotes killed)” value of the first is lower: 0% for the first, 10% for the second.
